# Data: patent US20240246905A1 (University of Leicester, priority 2021, published 2024)
# What was measured:
# HEK293 cells = assay: Cytotoxicity assay, resazurin (CO-ADD)
# Experimental: The cytotoxicity studies were performed by CO-ADD (The Community for Open Antimicrobial Drug Discovery), funded by the Wellcome trust (UK) and the University of Queensland, Australia.^(28) In this study, the compounds were screened against a human embryonic kidney cell line, HEK293, at a set concentration of 32 μg/mL.
# DMEM supplemented with 10% FBS was used as growth media and the cells were incubated together with the compounds for 20 hours at 37° C. in 5% CO2.
# Cytotoxicity (or cell viability) was measured by fluorescence, excitation: 560/10 nm, emission: 590/10 nm (F560/590), after addition of 5 μL of 25 μg/mL Resazurin (2.3 μg/mL final concentration) and after incubation for further 3 h at 37° C. in 5% CO2. The fluorescence intensity was measured using a Tecan M1000 Pro monochromator plate reader, using automatic gain calculation CC50 (concentration at 50% cytotoxicity) were calculated by curve fitting the inhibition values vs. log(concentration) using sigmoidal dose-response function, with variable fitting values for bottom, top and slope. The curve fitting was implemented using Pipeline Pilot's dose-response component.
# [1] = tested on: various Staphylococcus aureus strains; assay: Disc diffusion, Staphylococcus aureus strain study; type: cell-based; details: Staphylococcus aureus, 500 μg/mL
# Excerpt: At this point in the study it was decided to perform a disc diffusion assay study on 50 S. aureus strains. […] Moreover, by employing a range of mutant strains of S. aureus with specific gene-deletions, it was believed that if particular strains were resistant to the lead compounds, it could provide insights on the likely protein target of the lead antibiotics. However, all six of the compounds utilized in this study were able to inhibit growth of all 50 strains of S. aureus assayed at the chosen concentration of 500 μg/mL concentration (Table 5).
# E. coli DH5α, P. aeruginosa PA01 and the 53 S. aureus strains were recovered from frozen (−80° C.) glycerol (15% v/v) stocks on Lysogeny agar (LA)—Gram negative and trypticase soy agar (TSA)—plates at 37° C. for 24 hours. Single colonies were placed in either 3 mL Lysogeny broth (LB)—Gram negative or trypticase soy broth (TSB)—Gram positive and incubated at 37° C., 250 rpm for 18 hours.
# The antibiotic activity was determined using a Kirby-Bauer method according to Clinical Standard Laboratory Institute (CSLI) Guidelines (2017). Briefly, 180 μL of a 1 in 200 dilution (in LB or TSB) of overnight cultures of selected Gram negative and Gram positive bacteria were applied to an agar plate containing the solid growth medium, Mueller-Hinton agar (MHA). Sterile discs, inoculated with 50 μL of antibiotic, were first added to the agar plate before the plates were incubated for 24 hours at 37° C. Following incubation, the zone of inhibition (if it existed) was recorded.
# MSSA 476 [2] = assay: Disc diffusion (Kirby-Bauer), zone of inhibition; type: cell-based, Staphylococcus aureus; details: Staphylococcus aureus, 500 μg/mL, '/' = no zone, read-out: Zone of inhibition
# In short: (§1)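 Kirby-Bauer per CLSI 2017: 1 in 200 dilutions of overnight cultures (LB for Gram-negatives, TSB for Gram-positives) spread on Mueller-Hinton agar. Discs loaded with 50 μL antibiotic were added and plates incubated 24 h at 37 °C. Zone of inhibition recorded.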
# MRSA 252 [3] = assay: Disc diffusion (Kirby-Bauer), zone of inhibition; type: cell-based, Staphylococcus aureus; details: Staphylococcus aureus, 500 μg/mL, '/' = no zone, read-out: Zone of inhibition
# In short: as §1
# red blood cells = assay: Hemolysis assay (CO-ADD); type: cell-based; details: 32 μg/mL highest concentration tested
# Excerpt: A problem often encountered by emerging drugs is hemolysis, also known as drug-induced immune hemolytic anemia.
# MSSA 476 [4] = assay: MIC, broth micro-dilution; type: cell-based, Staphylococcus aureus; details: Staphylococcus aureus, MSSA, read-out: MIC
# In short: (§2)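 Broth micro-dilution followed CLSI 2017: 1:2 antibiotic dilutions in TSB were inoculated at 5×10^5 CFU/mL. OD was recorded every 12 min over 18 h at 37 °C, and MIC was derived from sigmoidal dose-response fits.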
# MRSA 252 [5] = assay: MIC, broth micro-dilution; type: cell-based, Staphylococcus aureus; details: Staphylococcus aureus, read-out: MIC
# In short: as §2
# [6] = tested on: Staphylococcus aureus 15981; assay: Disc diffusion (Kirby-Bauer), zone of inhibition; type: cell-based; details: Staphylococcus aureus 15981; 500 μg/mL; '/' = no zone; read-out: Zone of inhibition
# In short: as §1
structure (smiles),measurement,setting,value
"[C-]#[N+]/C=C/c1ccc(O)cc1/C=C/c1ccccc1 [Compound 36, 4-((E Z)-2-Isocyanovinyl)-3-((E)-styryl)phenol]",Concentration toxic to HEK 293 cells,HEK293 cells; HEK 293,>32000 ng/mL
same,toxicity towards the HEK293 cell line (in words),HEK293 cells; set concentration of 32 μg/mL,no toxicity
same,zone of inhibition at 500 µg/mL,[1]; strain ASARM 61,29 mm
same,zone of inhibition at 500 µg/mL,[1]; strain ASARM 70,28 mm
same,zone of inhibition at 500 µg/mL,[1]; strain ASARM 71,26 mm
same,zone of inhibition at 500 µg/mL,[1]; strain ASARM 72,26 mm
same,zone of inhibition at 500 µg/mL,[1]; strain ASARM 73,29 mm
same,zone of inhibition at 500 µg/mL,[1]; strain ASARM 75,32 mm
same,zone of inhibition at 500 µg/mL,[1]; strain ASARM 76,34 mm
same,zone of inhibition at 500 µg/mL,[1]; strain ASARM 77,34 mm
same,zone of inhibition at 500 µg/mL,[1]; strain ASARM 79,29 mm
same,zone of inhibition at 500 µg/mL,[1]; strain ASARM 80,30 mm
same,zone of inhibition at 500 µg/mL,[1]; strain EOE 3,30 mm
same,zone of inhibition at 500 µg/mL,[1]; strain EOE 23,32 mm
same,zone of inhibition at 500 µg/mL,[1]; strain EOE 30,34 mm
same,zone of inhibition at 500 µg/mL,[1]; strain EOE 35,32 mm
same,zone of inhibition at 500 µg/mL,[1]; strain EOE 41,28 mm
same,zone of inhibition at 500 µg/mL,[1]; strain EOE 42,26 mm
same,zone of inhibition at 500 µg/mL,[1]; strain EOE 45,28 mm
same,zone of inhibition at 500 µg/mL,[1]; strain EOE 52,28 mm
same,zone of inhibition at 500 µg/mL,[1]; strain EOE 54,29 mm
same,zone of inhibition at 500 µg/mL,[1]; strain EOE 57,28 mm
same,zone of inhibition at 500 µg/mL,[1]; strain S139_7_7,24 mm
same,zone of inhibition at 500 µg/mL,[1]; strain S197_1_1,29 mm
same,zone of inhibition at 500 µg/mL,[1]; strain S197_1_8,28 mm
same,zone of inhibition at 500 µg/mL,[1]; strain S197_1_9,28 mm
same,zone of inhibition at 500 µg/mL,[1]; strain S197_1_10,28 mm
same,zone of inhibition at 500 µg/mL,[1]; strain S295_1_1,30 mm
same,zone of inhibition at 500 µg/mL,[1]; strain S295_1_2,30 mm
same,zone of inhibition at 500 µg/mL,[1]; strain S295_1_3,32 mm
same,zone of inhibition at 500 µg/mL,[1]; strain S364_5_11,30 mm
same,zone of inhibition at 500 µg/mL,[1]; strain S364_5_12,28 mm
same,zone of inhibition at 500 µg/mL,[1]; strain Sa_TPS 3026,29 mm
same,zone of inhibition at 500 µg/mL,[1]; strain Sa_TPS 3072,28 mm
same,zone of inhibition at 500 µg/mL,[1]; strain Sa_TPS 3092,29 mm
same,zone of inhibition at 500 µg/mL,[1]; strain Sa_TPS 3097,34 mm
same,zone of inhibition at 500 µg/mL,[1]; strain Sa_TPS 3103,32 mm
same,zone of inhibition at 500 µg/mL,[1]; strain Sa_TPS 3104,32 mm
same,zone of inhibition at 500 µg/mL,[1]; strain Sa_TPS 3106,28 mm
same,zone of inhibition at 500 µg/mL,[1]; strain Sa_TPS 3118,28 mm
same,zone of inhibition at 500 µg/mL,[1]; strain Sa_TPS 3133,28 mm
same,zone of inhibition at 500 µg/mL,[1]; strain Sa_TPS 3134,26 mm
same,zone of inhibition at 500 µg/mL,[1]; strain USFL 008,26 mm
same,zone of inhibition at 500 µg/mL,[1]; strain USFL 009,28 mm
same,zone of inhibition at 500 µg/mL,[1]; strain USFL 012,28 mm
same,zone of inhibition at 500 µg/mL,[1]; strain USFL 016,32 mm
same,zone of inhibition at 500 µg/mL,[1]; strain USFL 018,30 mm
same,zone of inhibition at 500 µg/mL,[1]; strain USFL 020,30 mm
same,zone of inhibition at 500 µg/mL,[1]; strain USFL 021,29 mm
same,zone of inhibition at 500 µg/mL,[1]; strain USFL 028,28 mm
same,zone of inhibition at 500 µg/mL,[1]; strain USFL 035,28 mm
same,zone of inhibition at 500 µg/mL,[1]; strain USFL 054,28 mm
same,zone of inhibition at 500 µg/mL,[1]; strain not given,22 mm
same,zone of inhibition at 500 µg/mL,MSSA 476 [2],30 mm
same,zone of inhibition at 500 µg/mL,MRSA 252 [3],28 mm
same,Hemolytic activity (HC10),red blood cells,>32 µg/mL
same,MIC,MSSA 476 [4],12 µg/mL
same,MIC,MRSA 252 [5],15 µg/mL
same,zone of inhibition at 500 µg/mL,[6],30 mm
